Assay results as given in patent US7393812B2, “Methylidene mevalonates and their use as herbicides” (Dow AgroSciences LLC, priority 2004, dated 2008).

Legend:
Assay type in all cases: in vivo
BW ave = test: Post-emergent evaluation, average; conditions: after 2 weeks
Procedure: (§1) Seeds of the desired test plant species were planted in Grace-Sierra MetroMix® 306 planting mixture, which typically has a pH of 6.0 to 6.8 and an organic matter content of about 30 percent, in plastic pots with a surface area of 64 square centimeters. When required to ensure good germination and healthy plants, a fungicide treatment and/or other chemical or physical treatment was applied. The plants were grown for 7-21 days in a greenhouse with an approximate 15 hr photoperiod which was maintained at about 23-29° C. during the day and 22-28° C. during the night. Nutrients and water were added on a regular basis and supplemental lighting was provided with overhead metal halide 1000-Watt lamps as necessary. The plants were employed for testing when they reached the first or second true leaf stage.
(§2) A weighed amount, determined by the highest rate to be tested, of each test compound was placed in a 20 mL glass vial and was dissolved in 4 mL of a 97:3 v/v (volume/volume) mixture of acetone and dimethyl sulfoxide (DMSO) to obtain concentrated stock solutions. […] The concentrated stock solutions obtained were diluted with an aqueous mixture containing acetone, water, isopropyl alcohol, DMSO, Atplus 411F crop oil concentrate, and Triton X-155 surfactant in a 48.5:39:10:1.5:1.0:0.02 v/v ratio to obtain spray solutions of known concentration. The solutions containing the highest concentration to be tested were prepared by diluting 2 mL aliquots of the stock solution with 13 mL of the mixture and lower concentrations were prepared by serial dilution of the stock solution. Approximately 1.5 mL aliquots of each solution of known concentration were sprayed evenly onto each of the test plant pots using a DeVilbiss atomizer driven by compressed air pressure of 2 to 4 psi ([…]) to obtain thorough coverage of each plant. Control plants were sprayed in the same manner with the aqueous mixture. In this test an application rate of 1 ppm results in the application of approximately 1 g/Ha.
(§3) The treated plants and control plants were placed in a greenhouse as described above and watered by sub-irrigation to prevent wash-off of the test compounds. After 2 weeks the condition of the test plants as compared with that of the untreated plants was determined visually and scored on a scale of 0 to 100 percent where 0 corresponds to no injury and 100 corresponds to complete kill. Species abbreviations as described for Table I with the following additions: soybean (Glycine max, GLXMA), rape (Brassica napus, BRSNN), chickweed (Stellaria media, STEME), cocklebur (Xanthium strumarium XANST), lambsquarters (Chenopodium album, CHEAL), violet (Viola tricolor, VIOTR), bindweed (Polygonum convolvulus, POLCO), spurge (Euphorbia heterophylla, EPHHL), Canada thistle (Cirsium arvense, CIRAR), corn (Zea mays, ZEAMX), rice (Oryza sativa, ORYSA), wheat (Triticum aestivum, TRZAS), crabgrass (Digitaria sanguinalis, DIGSA), shattercane (Sorghum vulgare, SORVU) and yellow nutsedge (Cyperus esculentus, CYPES).

GW ave = test: Post-emergent evaluation, average; conditions: after 2 weeks
Procedure: as §1, §2, §3

[1] = tested on: morningglory (Ipomoea hederacea, IPOHE); test: Post-emergent evaluation; conditions: after 2 weeks
Procedure: as §1, §2
as §3, with “After 2 weeks the condition of the test plants as compared with that of the untreated plants was determined visually and scored on a scale of 0 to 100 percent where 0 corresponds to no injury and 100 corresponds to complete kill.” left out
(§4) By applying the well-accepted probit analysis as described by J. Berkson in Journal of the American Statistical […], 48, 565 (1953) and by D. Finney in “Probit Analysis” Cambridge University Press (1952), similar data can be used to calculate GR80 values, which are defined as growth reduction factors that correspond to the effective dose of herbicide required to kill or control 80 percent of a target plant. Species abbreviations are as previously defined.

[2] = tested on: velvetleaf (Abutilon theophrasti, ABUTH); test: Post-emergent evaluation; conditions: after 2 weeks
Procedure: as §1, §2
as §3, with “After 2 weeks the condition of the test plants as compared with that of the untreated plants was determined visually and scored on a scale of 0 to 100 percent where 0 corresponds to no injury and 100 corresponds to complete kill.” left out
as §4

[3] = tested on: chickweed (Stellaria media, STEME); test: Post-emergent evaluation; conditions: after 2 weeks
Procedure: as §1, §2
as §3, with “After 2 weeks the condition of the test plants as compared with that of the untreated plants was determined visually and scored on a scale of 0 to 100 percent where 0 corresponds to no injury and 100 corresponds to complete kill.” left out
as §4

[4] = tested on: shattercane (Sorghum vulgare, SORVU); test: Post-emergent evaluation; conditions: after 2 weeks
Procedure: as §1, §2
as §3, with “After 2 weeks the condition of the test plants as compared with that of the untreated plants was determined visually and scored on a scale of 0 to 100 percent where 0 corresponds to no injury and 100 corresponds to complete kill.” left out
as §4

[5] = tested on: barnyardgrass (Echinochloa crusgalli, ECHCG); test: Post-emergent evaluation; conditions: after 2 weeks
Procedure: as §1, §2
as §3, with “After 2 weeks the condition of the test plants as compared with that of the untreated plants was determined visually and scored on a scale of 0 to 100 percent where 0 corresponds to no injury and 100 corresponds to complete kill.” left out
as §4

[6] = tested on: violet (Viola tricolor, VIOTR); test: Post-emergent evaluation; conditions: after 2 weeks
Procedure: as §1, §2
as §3, with “After 2 weeks the condition of the test plants as compared with that of the untreated plants was determined visually and scored on a scale of 0 to 100 percent where 0 corresponds to no injury and 100 corresponds to complete kill.” left out
as §4

[7] = tested on: giant foxtail (Setaria faberi, SETFA); test: Post-emergent evaluation; conditions: after 2 weeks
Procedure: as §1, §2
as §3, with “After 2 weeks the condition of the test plants as compared with that of the untreated plants was determined visually and scored on a scale of 0 to 100 percent where 0 corresponds to no injury and 100 corresponds to complete kill.” left out
as §4

[8] = tested on: morningglory (Ipomoea hederacea, IPOHE); test: Synergistic herbicidal activity, foliar track sprayer; conditions: methylidene mevalonate 933 g ae/ha alone, 14 days, 1% crop oil concentrate
Procedure: Methylidene mevalonate alone and in combination with nonanoic acid was applied to the foliage of rapidly growing plant material utilizing a track sprayer calibrated to deliver an application volume of 187 L/ha. These treatments were applied to both broadleaf and grass weed species. All treatments contained 1% crop oil concentrate. Assessment of herbicidal activity was performed visually relative to untreated controls after 14 days incubation in the greenhouse. Species abbreviations are as previously defined.

C=C(CO)C(C)(O)CC(=O)O (stereo not shown) [methylidene mevalonate, 3-hydroxy-4-(hydroxymethyl)-3-methylpent-4-enoic acid]
Postemergent % Control, BW ave (BW ave; spray concentration 125 ppm): 11% | Postemergent % Control, BW ave (BW ave; spray concentration 250 ppm): 15% | Postemergent % Control, BW ave (BW ave; spray concentration 500 ppm): 37% | Postemergent % Control, BW ave (BW ave; spray concentration 1000 ppm): 54% | Postemergent % Control, BW ave (BW ave; spray concentration 2000 ppm): 63% | Postemergent % Control, GW ave (GW ave; spray concentration 125 ppm): 12% | Postemergent % Control, GW ave (GW ave; spray concentration 250 ppm): 39% | Postemergent % Control, GW ave (GW ave; spray concentration 500 ppm): 64% | Postemergent % Control, GW ave (GW ave; spray concentration 1000 ppm): 82% | Postemergent % Control, GW ave (GW ave; spray concentration 2000 ppm): 88% | Postemergent % Control ([1]; spray concentration 125 ppm): 40% | Postemergent % Control ([1]; spray concentration 250 ppm): 50% | Postemergent % Control ([1]; spray concentration 500 ppm): 70% | Postemergent % Control ([1]; spray concentration 1000 ppm): 80% | Postemergent % Control ([1]; spray concentration 2000 ppm): 80% | Postemergent % Control ([2]; spray concentration 125 ppm): 0% | Postemergent % Control ([2]; spray concentration 250 ppm): 5% | Postemergent % Control ([2]; spray concentration 500 ppm): 20% | Postemergent % Control ([2]; spray concentration 1000 ppm): 50% | Postemergent % Control ([2]; spray concentration 2000 ppm): 60% | Postemergent % Control ([3]; spray concentration 125 ppm): 0% | Postemergent % Control ([3]; spray concentration 250 ppm): 0% | Postemergent % Control ([3]; spray concentration 500 ppm): 0% | Postemergent % Control ([3]; spray concentration 1000 ppm): 20% | Postemergent % Control ([3]; spray concentration 2000 ppm): 40% | Postemergent % Control ([4]; spray concentration 125 ppm): 0% | Postemergent % Control ([4]; spray concentration 250 ppm): 50% | Postemergent % Control ([4]; spray concentration 500 ppm): 90% | Postemergent % Control ([4]; spray concentration 1000 ppm): 90% | Postemergent % Control ([4]; spray concentration 2000 ppm): 90% | Postemergent % Control ([5]; spray concentration 125 ppm): 40% | Postemergent % Control ([5]; spray concentration 250 ppm): 85% | Postemergent % Control ([5]; spray concentration 500 ppm): 95% | Postemergent % Control ([5]; spray concentration 1000 ppm): 95% | Postemergent % Control ([5]; spray concentration 2000 ppm): 100% | Postemergent % Control ([6]; spray concentration 125 ppm): 0% | Postemergent % Control ([6]; spray concentration 250 ppm): 0% | Postemergent % Control ([6]; spray concentration 500 ppm): 0% | Postemergent % Control ([6]; spray concentration 1000 ppm): 25% | Postemergent % Control ([6]; spray concentration 2000 ppm): 30% | Postemergent % Control ([7]; spray concentration 125 ppm): 30% | Postemergent % Control ([7]; spray concentration 250 ppm): 70% | Postemergent % Control ([7]; spray concentration 500 ppm): 70% | Postemergent % Control ([7]; spray concentration 1000 ppm): 80% | Postemergent % Control ([7]; spray concentration 2000 ppm): 90% | Actual Injury % growth reduction [8]: 60%
